In ChEMBL document CHEMBL1201862, “PubChem BioAssay data set” (2004):
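96-well plates; 48 h exposure; 5 concentrations. Endpoints by linear interpolation between flanking doses. Not reached: highest tested concentration assigned. GI50: concentration for 50% inhibition of growth.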 Active and inactive are the calls of the source. Cut-off read from the data, not from the text of the source: active = GI50 up to about 1.1 µM and inactive = higher.

Tests used:
Assay in all cases: NCI tumour cell line growth inhibition, 48 h
SK-MEL-2 = test system: SK-MEL-2
SNB-75 = test system: SNB-75
EKVX = test system: EKVX
NCI-H226 = test system: NCI-H226
MDA-MB-231 = test system: MDA-MB-231
SF-268 = test system: SF-268
OVCAR-5 = test system: OVCAR-5
HL-60 = test system: HL-60
SK-MEL-5 = test system: SK-MEL-5
BT-549 = test system: BT-549
TK-10 = test system: TK-10
MDA-MB-435 = test system: MDA-MB-435
Hs-578T = test system: Hs-578T
RPMI-8226 = test system: RPMI-8226
HT-29 = test system: HT-29
HCC 2998 = test system: HCC 2998
LOX IMVI = test system: LOX IMVI
NCI-H460 = test system: NCI-H460
SW-620 = test system: SW-620

Row | SMILES | GI50 (SK-MEL-2) | GI50 (SNB-75) | GI50 (EKVX) | GI50 (NCI-H226) | GI50 (MDA-MB-231) | GI50 (SF-268) | GI50 (OVCAR-5) | GI50 (HL-60) | GI50 (SK-MEL-5) | GI50 (BT-549) | GI50 (TK-10) | GI50 (MDA-MB-435) | GI50 (Hs-578T) | GI50 (RPMI-8226) | GI50 (HT-29) | GI50 (HCC 2998) | GI50 (LOX IMVI) | GI50 (NCI-H460) | GI50 (SW-620)
1 | Cc1c(C(=O)OCc2ccccc2)[n+]([O-])c2ccccc2[n+]1[O-] | 32.8 µM (inactive) | 15.6 µM (inactive) | 25.8 µM (inactive) | 14.5 µM (inactive) | 20.8 µM (inactive) | 34.7 µM (inactive) | 60.1 µM (inactive) | 26.1 µM (inactive) | 22 µM (inactive) | 57.9 µM (inactive) | 33.2 µM (inactive) | 26.4 µM (inactive) | 30.1 µM (inactive) | 11.6 µM (inactive) | 60.8 µM (inactive) | 30.8 µM (inactive) | 20 µM (inactive) | 25.4 µM (inactive) | –
2 | Cc1ccc(C(=N)c2ccccc2Cc2cccc3ccccc23)c2ccccc12 | > 100 µM (inactive) | > 100 µM (inactive) | 60.1 µM (inactive) | > 100 µM (inactive) | > 100 µM (inactive) | > 100 µM (inactive) | > 100 µM (inactive) | 44.1 µM (inactive) | 31.9 µM (inactive) | > 100 µM (inactive) | > 100 µM (inactive) | > 100 µM (inactive) | > 100 µM (inactive) | – | 11.7 µM (inactive) | – | 80.2 µM (inactive) | 41.5 µM (inactive) | 71 µM (inactive)
3 | Clc1cc(Cl)cc(/N=C/C=C/Nc2cc(Cl)cc(Cl)c2)c1 | 19.9 µM (inactive) | 13.1 µM (inactive) | 5.12 µM (inactive) | 14.4 µM (inactive) | 14.2 µM (inactive) | 18.9 µM (inactive) | 21.6 µM (inactive) | 19.1 µM (inactive) | 15.1 µM (inactive) | 43.3 µM (inactive) | 29.9 µM (inactive) | 18.6 µM (inactive) | 19.1 µM (inactive) | 24.5 µM (inactive) | 14.7 µM (inactive) | 15.2 µM (inactive) | – | 19.1 µM (inactive) | 19 µM (inactive)
4 | Oc1ccc(C(O)(c2ccccc2)c2ccccc2)c2ccccc12 | 2.4 µM (inactive) | 4.53 µM (inactive) | 10.4 µM (inactive) | 2.52 µM (inactive) | 1.79 µM (inactive) | 2.4 µM (inactive) | 2.3 µM (inactive) | 2.93 µM (inactive) | 2.67 µM (inactive) | 3.85 µM (inactive) | 2.59 µM (inactive) | 1.07 µM (active) | 3.88 µM (inactive) | – | 2.77 µM (inactive) | – | 1.25 µM (inactive) | 2.72 µM (inactive) | 2.64 µM (inactive)
